Experimental data reported in patent US20030109582A1, “Methods and compositions for stimulating secretions from paneth cells” (priority 2001, published 2003).

Assays:
[1] = system: Human Paneth cells (isolated intact human crypts from ileum); secretions tested on Salmonella typhimurium phoP-; assay: human Paneth cell secretion assay (bactericidal activity of crypt secretions); format: cell-based; conditions: for % Bacterial Cell Killing: S. typhimurium
Excerpt: An assay was developed utilizing Human Paneth cells, obtained from biopsy material. Substances were screened in vitro, by exposing the isolated human tissue material briefly, and assessing the release of antibiotic activity.
A human Paneth cell secretion assay was developed using isolated intact human crypts from ileum obtained after bowel surgery, following published techniques. About 700 isolated crypts obtained by disruption with EDTA, as estimated using a hemocytometer, were transferred into microfuge tubes. Crypts were then incubated in minimal essential media containing non-essential amino acids, with or without various substances (such as isoleucine) in a total volume of 0.5 ml for 30 min or 1 hour at 37° C. After incubation the tissue suspension was spum, and the supernatants collected 10 microliter aliquots were then mixed with either 500 or 1000 colony forming units (cfu) of Salmonella typhimurium phoP- and incubated for 1 hour at 37° C. Surviving bacteria were quantitated by plating on nutrient agar. Bactericidal assays were conducted in triplicate. Data were expressed as the percent bacteria killed under experimental conditions relative to those recovered from controls.

[2] = system: Crohn's disease patients; assay: L-isoleucine administration to Crohn's disease patients (CDAI, abdominal symptoms); format: in vivo, human; conditions: Four grams/day oral, 4 weeks
Procedure: L-isoleucine was administered to nine volunteer Crohn's disease patients with mild abdominal symptoms. Four grams/day of powdered L-isoleucine divided into two doses was orally administered for 4 weeks. The CDAI (Crohn's disease activity index—Best W, Beckel J, Singleton J, Kern F J, Development of a Crohn's Disease Activity Index: National Cooperative Crohn's Disease Study. Gastroenterology 1976; 70:439-44) was calculated at the beginning and following the fourth week of the L-isoleucine administration period. All medication regiments were fixed throughout the study period.

[3] = system: fecal Lactobacilli; assay: population density of viable Lactobacilli in stools of individuals with Crohn's disease; format: in vivo, human; conditions: after 1 week of L-isoleucine administration (dosed as in Example 2) added to low-residual formula diet; 9 hospitalized Crohn's disease individuals
Procedure: The population density of viable Lactobacilli in the stools of a group of 9 hospitalized individuals with Crohn's disease was measured before and after a course of L-isoleucine administration. Subjects in this group had been supported nutritionally exclusively by total parenteral nutrition (TPN) for more than one month. One week after a low-residual formula diet was introduced, L-isoleucine was added to the diet (dosed as in Example 2) during the fmal week of hospitalization. Yogurt and other fermented products were restricted as were antibiotics.

CC[C@H](C)[C@H](N)C(=O)O [isoleucine, L(+)isoleucine]
Bactericidal activity in secretions against S. typhimurium ([1]; crypts exposed to 250 microgram/ml for 1 hour): detected | % Bacterial Cell Killing ([1]; crypts exposed to L(+)isoleucine 250 microgram/ml for 1 hour, relative to controls): 63.7% | Surviving Bacteria ([1]; crypts exposed to L(+)isoleucine 250 microgram/ml for 1 hour, supernatant incubated with S. typhimurium 1 hour): 140 ± 23 | isoleucine-induced secretion effect, dose dependence ([1]; human Paneth cells, Salmonella typhimurium killing): dose dependent | % Bacterial Cell Killing ([1]; isoleucine 5 μg/ml, 30 minutes): 4.1% | % Bacterial Cell Killing ([1]; isoleucine 50 μg/ml, 30 minutes): 22.5% | % Bacterial Cell Killing ([1]; isoleucine 500 μg/ml, 30 minutes): 51.7% | frequency of diarrhea ([2]; Crohn's disease patients): gradually decreased | stool consistency ([2]; Crohn's disease patients): improved | mean CDAI at fourth week ([2]; two doses, nine Crohn's disease patients, mean CDAI at beginning 120): 90 | mean concentration of fecal Lactobacilli [3]: significantly increased
